Assay results as given in patent publication US20100227873A1, “NITROGEN-CONTAINING HETEROCYCLIC COMPOUNDS AND METHODS OF USE THEREOF” (Schering Corporation, priority 2005, published 2010).

Biological target: recombinant human nicotinic acid receptor (NAR) (Homo sapiens, UniProt Q8TDS4)
Experiment: Nicotinic acid receptor assay: inhibition of forskolin-stimulated cAMP accumulation (MesoScale Discovery cAMP detection kit) in CHO cells
Format: cell-based
Details: CHO cells expressing recombinant human NAR, activity class, read-out: NA EC50 camp
Description: The nicotinic acid receptor agonist activity of the inventive compounds was determined by following the inhibition of forskolin-stimulated cAMP accumulation in cells using the MesoScale Discovery cAMP detection kit following the manufacturer's protocol. Briefly, Chinese Hamster Ovary (CHO) cells expressing recombinant human nicotinic acid receptor (NAR) were harvested enzymatically, washed 1× in phosphate buffered saline (PBS) and resuspended in PBS containing 0.5 mM IBMX at 3×10^6 cells/mL. Ten μL of cell suspension was added to each well of a 384-well plate which contained 10 μL of test compounds. Test compounds were diluted with PBS containing 6 μM of forskolin. Plates were incubated for 30 minutes at room temperature after the addition of cells. Lysis buffer containing cAMP-Tag was added to each well (10 μL/well) as per the manufacturer's protocol. Plates were then incubated from 45 minutes to overnight. Prior to reading, 10 μt of read buffer was added to each well, and the plate was read in a Sector 6000 plate imager. The signal was converted to cAMP concentration using a standard curve run on each plate. Compound EC50 values were determined from concentration gradients of test compounds.

recombinant human nicotinic acid receptor (NAR), sequence (Q8TDS4 whole entry): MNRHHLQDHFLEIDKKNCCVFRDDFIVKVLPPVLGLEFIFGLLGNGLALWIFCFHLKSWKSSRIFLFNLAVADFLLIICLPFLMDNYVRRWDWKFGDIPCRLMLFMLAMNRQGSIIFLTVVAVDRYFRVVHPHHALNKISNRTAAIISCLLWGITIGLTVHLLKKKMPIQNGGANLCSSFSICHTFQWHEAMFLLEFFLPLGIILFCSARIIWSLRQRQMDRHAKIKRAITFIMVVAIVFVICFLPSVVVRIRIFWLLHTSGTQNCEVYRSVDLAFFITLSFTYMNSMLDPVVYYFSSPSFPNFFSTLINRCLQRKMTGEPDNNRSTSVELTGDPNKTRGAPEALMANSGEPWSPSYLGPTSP

Question: `O=c1[nH]c(=O)c2c(Cc3cccc(Br)c3)cc(=O)oc2[nH]1` [Compound 238] was tested. Which EC50 did it give?
Answer: The EC50 was 100 to 1000 nM.
